This note sets out measurements from patent publication US20050245399A1, “Pyrazole derivatives as herbicidal compositions containing them” (ISHIHARA SANGYO KAISHA, LTD., priority 2004, published 2005).

Type in all cases: in vivo
In experiment [1] the test system is barnyardgrass (Echinochloa crus-galli L.): ECHCG. Kind of experiment: Test Example 1 pre-emergence herbicidal activity, ECHCG. Conditions: Rate 125 g a.i./ha, visually observed 20th to 23rd day after application. In short, it runs like this: (§1)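 Scoring was visual growth control (0 = untreated, 100 = complete kill) on days 20–23 post-application. Treatment came as a pre-emergence spray one day after sowing in upland soil, using wettable powder or emulsifiable concentrate diluted in 500 L/ha water at predetermined active-ingredient amounts.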

The test system of experiment [2] is crabgrass (Digitaria sanguinalis L.): DIGSA. Kind of experiment: Test Example 1 pre-emergence herbicidal activity, DIGSA. Particulars: Rate 125 g a.i./ha, visually observed 20th to 23rd day after application. In outline: as §1
Experiment [3] has as its system green foxtail (Setaria viridis L.): SETVI. Description: Test Example 1 pre-emergence herbicidal activity, SETVI. Conditions: Rate 125 g a.i./ha, visually observed 20th to 23rd day after application. In short, it runs like this:
as §1

Experiment [4] relates to redroot pigweed (Amaranthus retroflexus L.): AMARE. Description: Test Example 1 pre-emergence herbicidal activity, AMARE. Particulars: Rate 125 g a.i./ha, visually observed 20th to 23rd day after application. In outline: as §1
Experiment [5] relates to prickly sida (Sida spinosa L.): SEDSP. Kind of experiment: Test Example 1 pre-emergence herbicidal activity, SIDSP. Conditions: Rate 125 g a.i./ha, visually observed 20th to 23rd day after application. In short, it runs like this:
as §1

For experiment [6], the system named is velvetleaf (Abutilon theophrasti): ABUTH. Description: Test Example 1 pre-emergence herbicidal activity, ABUTH. Particulars: Rate 125 g a.i./ha, visually observed 20th to 23rd day after application. In short, it runs like this:
as §1

Experiment [7] has as its system rice (Oryza sativa L.): ORYSA. Description: Test Example 1 pre-emergence herbicidal activity, ORYSA. Particulars: Rate 125 g a.i./ha, visually observed 20th to 23rd day after application. In short, it runs like this: as §1
The test system of experiment [8] is wheat (Triticum aestivum L.): TRZAX. Kind of experiment: Test Example 1 pre-emergence herbicidal activity, TRZAX. Particulars: Rate 125 g a.i./ha, visually observed 20th to 23rd day after application. In short, it runs like this: as §1
Experiment [9] concerns corn (Zea mays L.): ZEAMX. Kind of experiment: Test Example 1 pre-emergence herbicidal activity, ZEAMX. Particulars: Rate 125 g a.i./ha, visually observed 20th to 23rd day after application. In outline: as §1
Experiment [10] concerns soybean (Glycine max Merr.): GLXMA. Kind of experiment: Test Example 1 pre-emergence herbicidal activity, GLXMA. Particulars: Rate 125 g a.i./ha, visually observed 20th to 23rd day after application. In short, it runs like this: as §1
Experiment [11] deals with barnyardgrass (Echinochloa crus-galli L.), ECHCG. Description: Test Example 2 post-emergence (foliage treatment) herbicidal activity, ECHCG. Particulars: 63 g a.i./ha. In short, it runs like this:
(§2)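 Visual rating of growth control, from 0 (untreated-like) to 100 (complete kill), was done 20–23 days after post-emergence spraying. Wettable powder or emulsifiable concentrate was diluted to 500 L/ha with 0.1% (v/v) spreader. Leaf stages at application were 1.1-2.1 (ECHCG), 1.0-2.0 (DIGSA), 0.1-1.5 (AMARE) and 1.0-2 (ORYSA).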

For experiment [12], the system named is crabgrass (Digitaria sanguinalis L.), DIGSA. Description: Test Example 2 post-emergence (foliage treatment) herbicidal activity, DIGSA. Particulars: 63 g a.i./ha. In outline: as §2
Experiment [13] has as its system green foxtail (Setaria viridis L.), SETVI. Description: Test Example 2 post-emergence (foliage treatment) herbicidal activity, SETVI. Conditions: 63 g a.i./ha. In short, it runs like this: (§3)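 A small sprayer delivered the diluted WP or EC formulation (500 L/ha water, 0.1% v/v spreader) over emerged seedlings in upland soil pots. Damage relative to untreated plants was graded visually from 0 to 100% three weeks or so later (days 20-23).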

The test system of experiment [14] is redroot pigweed (Amaranthus retroflexus L.), AMARE. Kind of experiment: Test Example 2 post-emergence (foliage treatment) herbicidal activity, AMARE. Conditions: 63 g a.i./ha. In outline: as §2
Experiment [15] relates to prickly sida (Sida spinosa L.), SIDSP. Kind of experiment: Test Example 2 post-emergence (foliage treatment) herbicidal activity, SIDSP. Particulars: 63 g a.i./ha. In outline: as §3
The test system of experiment [16] is velvetleaf (Abutilon theophrasti), ABUTH. Description: Test Example 2 post-emergence (foliage treatment) herbicidal activity, ABUTH. Particulars: 63 g a.i./ha. In outline:
as §3

The test system of experiment [17] is rice (Oryza sativa L.), ORYSA. Description: Test Example 2 post-emergence (foliage treatment) herbicidal activity, ORYSA. Conditions: 63 g a.i./ha. In outline: as §2
Experiment [18] concerns wheat (Triticum aestivum L.), TRZAX. Description: Test Example 2 post-emergence (foliage treatment) herbicidal activity, TRZAX. Conditions: 63 g a.i./ha. In outline: as §3
Experiment [19] has as its system corn (Zea mays L.), ZEAMX. Kind of experiment: Test Example 2 post-emergence (foliage treatment) herbicidal activity, ZEAMX. Conditions: 63 g a.i./ha. In outline:
as §3

Experiment [20] relates to soybean (Glycine max Merr.), GLXMA. Kind of experiment: Test Example 2 post-emergence (foliage treatment) herbicidal activity, GLXMA. Conditions: 63 g a.i./ha. In short, it runs like this: as §3
Experiment [21] concerns barnyardgrass (Echinochiloa oryzicola: ECHOR). Description: Test Example 3 water application herbicidal activity (paddy), ECHOR. Particulars: 63 g a.i./ha, water application under submerged condition at 0.5 leaf stage, visually observed 14th day after application; 0 = untreated control, 100 = complete kill. In short, it runs like this: (§4)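 Submerged application in flooded paddy soil (3–4 cm water); weeds treated at 0.5-leaf stage, transplanted rice 4 d after transplanting. Scored visually as % growth control: weeds at 14 d, rice at 21 d.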

Experiment [22] relates to japanese bulrush (Scirpus juncoides: SCPJO). Kind of experiment: Test Example 3 water application herbicidal activity (paddy), SCPJO. Conditions: 63 g a.i./ha, water application under submerged condition at 0.5 leaf stage, visually observed 14th day after application; 0 = untreated control, 100 = complete kill. In outline:
as §4

The subject of experiment [23] is japanese ribbon wapato (Sagittaria pygmaea: SA GPY). Kind of experiment: Test Example 3 water application herbicidal activity (paddy), SAGPY. Particulars: 63 g a.i./ha, water application under submerged condition, tubers planted, visually observed 14th day after application; 0 = untreated control, 100 = complete kill. In outline: as §4
Experiment [24] deals with rice (Oryza sativa L.: ORYSA). Kind of experiment: Test Example 3 water application herbicidal activity (paddy), transplanted rice ORYSA. Particulars: 63 g a.i./ha, water application 4th day after transplantation of 2 leaf stage rice, visually observed 21st day after application; 0 = untreated control, 100 = complete kill. In short, it runs like this: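 Flooded paddy-soil pots in greenhouse; ECHOR and SCPJO sown, SAGPY tubers planted a day later, compound applied into 3–4 cm water at weeds' 0.5-leaf stage. Rice transplanted at 2-leaf stage, treated day 4 after transplanting. Visual growth control 0–100% at 14 days (weeds) and 21 days (rice) after application.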

`COCCOC(=O)N(C(=O)OCCOC)c1c(OC)c(Cl)cc(F)c1-c1nn(C)c(OC(F)F)c1Cl` [Compound 1-54]: the “Pre-emergence Herbicidal Activity ECHCG (growth controlling degree)” value in experiment [1] amounted to 20%. Also, the “Pre-emergence Herbicidal Activity DIGSP (growth controlling degree)” value in experiment [2] is reported as 100%. In addition, the “Pre-emergence Herbicidal Activity SETVI (growth controlling degree)” value in [3] was found to be 100%. For the same molecule, the “Pre-emergence Herbicidal Activity AMARE (growth controlling degree)” value in experiment [4] is 100%. For the same molecule, in experiment [5], the “Pre-emergence Herbicidal Activity SIDSP (growth controlling degree)” value is given as 95%. The “Pre-emergence Herbicidal Activity ABUTH (growth controlling degree)” value in experiment [6] was determined as 80%. The “Pre-emergence Herbicidal Activity ORYSA (growth controlling degree)” value in [7] was determined as 30%. The “Pre-emergence Herbicidal Activity TRZAX (growth controlling degree)” value in [8] was 20%. In addition, the “Pre-emergence Herbicidal Activity ZEAMX (growth controlling degree)” value in experiment [9] is 0%. The “Pre-emergence Herbicidal Activity GLXMA (growth controlling degree)” value in experiment [10] was 10%. In [11], the “growth controlling degree, ECHCO” value amounted to 90%. Moreover, the “growth controlling degree, DIGSP” value in experiment [12] came to 70%. The “growth controlling degree, SETVI” value in experiment [13] worked out at 80%. For the same molecule, the “growth controlling degree, AMARE” value in [14] worked out at 100%. Moreover, in [15], the “growth controlling degree, SIDSP” value was 100%. The “growth controlling degree, ABUTH” value in experiment [16] is recorded as 100%. For the same molecule, the “growth controlling degree, ORYSA” value in experiment [17] worked out at 98%. Also, the “growth controlling degree, TRZAX” value in [18] is 30%. Also, the “growth controlling degree, ZEAMX” value in experiment [19] is recorded as 50%. In experiment [20], the “growth controlling degree, GLXMA” value came to 60%. Besides, in [21], the “growth controlling degrees (%) ECHOR” value stood at 98%. Besides, the “growth controlling degrees (%) SCPJO” value in experiment [22] turned out to be 30%. Further, in experiment [23], the “growth controlling degrees (%) SAGPY” value turned out to be 30%. The “growth controlling degrees (%) ORYSA” value in experiment [24] came to 40%.

Regarding `COc1c(Cl)cc(F)c(-c2nn(C)c(OC(F)F)c2Cl)c1N(C(=O)OCCl)C(=O)OCCl` [Compound 1-55], the “Pre-emergence Herbicidal Activity ECHCG (growth controlling degree)” value in [1] was determined as 50%. Besides, the “Pre-emergence Herbicidal Activity DIGSP (growth controlling degree)” value in [2] came to 95%. In experiment [3], the “Pre-emergence Herbicidal Activity SETVI (growth controlling degree)” value turned out to be 100%. For the same molecule, the “Pre-emergence Herbicidal Activity AMARE (growth controlling degree)” value in [4] stood at 100%. For the same molecule, in experiment [5], the “Pre-emergence Herbicidal Activity SIDSP (growth controlling degree)” value is 95%. Moreover, the “Pre-emergence Herbicidal Activity ABUTH (growth controlling degree)” value in experiment [6] is given as 70%. In addition, the “Pre-emergence Herbicidal Activity ORYSA (growth controlling degree)” value in experiment [7] is 10%. Besides, in experiment [8], the “Pre-emergence Herbicidal Activity TRZAX (growth controlling degree)” value was found to be 20%. The “Pre-emergence Herbicidal Activity ZEAMX (growth controlling degree)” value in experiment [9] amounted to 0%. Besides, the “Pre-emergence Herbicidal Activity GLXMA (growth controlling degree)” value in [10] is listed as 0%. The “growth controlling degree, ECHCO” value in [11] turned out to be 60%. Further, the “growth controlling degree, DIGSP” value in [12] was 0%. Also, in experiment [13], the “growth controlling degree, SETVI” value worked out at 30%. Further, the “growth controlling degree, AMARE” value in [14] was 100%. The “growth controlling degree, SIDSP” value in [15] came out at 100%. The “growth controlling degree, ABUTH” value in experiment [16] stood at 100%. Besides, the “growth controlling degree, ORYSA” value in [17] was determined as 50%. Further, in experiment [18], the “growth controlling degree, TRZAX” value turned out to be 10%. For the same molecule, the “growth controlling degree, ZEAMX” value in experiment [19] turned out to be 10%. Moreover, the “growth controlling degree, GLXMA” value in experiment [20] is 30%. The “growth controlling degrees (%) ECHOR” value in experiment [21] is recorded as 100%. For the same molecule, the “growth controlling degrees (%) SCPJO” value in experiment [22] is listed as 95%. Also, the “growth controlling degrees (%) SAGPY” value in experiment [23] came out at 100%. Also, the “growth controlling degrees (%) ORYSA” value in [24] is 50%.
